In patent US20220009920A1 (GB005, Inc., priority 2020, published 2022) one finds IC50 data, which are given here for 22 compounds.

The subject of one test is BTK in RAMOS B cells. Nature of the test: Assay to determine BTK activity in RAMOS B cells (anti-IgM, FLIPR Calcium 6). It counts as cell-based. Conditions: anti-IgM EC80, calcium readout. The protocol:
On the day before assay, Ramos B cells were plated in plating medium (RPMI1640 medium containing 1% FBS and 1× pencillin-streptomycin). On the day of the assay, 2× dye solution was prepared following the manual of the FLIRP Calcium 6 Assay Kit: Dilute the dye with assay buffer (20 mM HEPES in IX HBSS, pH7.4); Add probenecid to the final concentration of 5 mM; vortex vigorously for 1-2 minutes. Cells were collected by centrifuging, and the pellet was re-suspended in plating medium. After counting, cells were re-suspended at a density of 3×10^6/ml in plating medium. Equal volume of 2× dye solution was added to the cell suspension. Cells were then plated at 20 μl/well into a 384-well poly-D-lysine coated plate. Plate was centrifuged at 1000 rpm for 3 minutes and then incubated at 37° C. for 2 hours followed by an additional 15-minute incubation at 25° C. Compounds were prepared at 3× concentration in dilution buffer (20 mM HEPES and 0.1% BSA in 1×HBSS, pH 7.4). Serially diluted compound was transferred from source plate to a 384-well compound plate by using an Echo 550 (Labcyte). 20 μl/well compound dilution buffer was added to the compound plate and mixed on plate shaker for 2 mins. 4× EC80 of Anti-IgM (Jackson ImmunoResearch) was prepared in dilution buffer and 20 μl/well was added to a new 384-well compound plate. After 60 mins of incubation at 25° C. in the dark; cell plate, compound plate containing 4×EC80 of anti-IgM and FLIPR tips were placed into FLIPR (Molecular Devices). 10 ul/well of 4×EC80 anti-IgM was transferred to the cell plate by FLIPR. Plates were read for 160 sec with 1 sec interval.

The target in the next test is T1, BTK (Homo sapiens, UniProt Q06187).
T1 construct: purchased Cama
T1 sequence (Q06187 whole entry): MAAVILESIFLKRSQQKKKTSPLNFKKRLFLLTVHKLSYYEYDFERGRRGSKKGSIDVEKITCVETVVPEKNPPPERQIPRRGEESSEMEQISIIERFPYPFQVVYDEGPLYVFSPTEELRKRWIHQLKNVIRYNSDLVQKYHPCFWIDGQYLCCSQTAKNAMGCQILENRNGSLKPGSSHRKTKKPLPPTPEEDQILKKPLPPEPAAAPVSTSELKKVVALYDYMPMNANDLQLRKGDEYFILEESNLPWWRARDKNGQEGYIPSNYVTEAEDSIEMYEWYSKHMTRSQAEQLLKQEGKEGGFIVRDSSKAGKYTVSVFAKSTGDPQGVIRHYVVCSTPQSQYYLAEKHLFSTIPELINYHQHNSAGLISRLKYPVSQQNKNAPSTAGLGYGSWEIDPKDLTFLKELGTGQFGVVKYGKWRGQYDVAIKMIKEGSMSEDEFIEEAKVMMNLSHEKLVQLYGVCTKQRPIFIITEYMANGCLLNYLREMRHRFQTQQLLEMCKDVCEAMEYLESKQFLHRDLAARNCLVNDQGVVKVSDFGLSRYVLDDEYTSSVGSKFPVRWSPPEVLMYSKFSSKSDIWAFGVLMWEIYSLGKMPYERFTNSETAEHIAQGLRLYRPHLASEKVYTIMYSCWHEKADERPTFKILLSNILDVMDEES
Nature of the test: Assay to determine activity against BTK. It counts as biochemical. The settings on record: 1 mM ATP, 2 nM BTK, 90 minutes at room temperature. As to the method:
Solutions of compounds (test or control) in DMSO were prepared at the desired concentrations, and serially diluted to 11 concentrations by 3-fold dilution in 384pp-plate using TECAN EVO200. 20 nL of stock were transferred to 384 plate using Echo550. DMSO was used as vehicle control.
(BTK was obtained from Cama; FLPeptide2 was obtained from PerkinElmer and Ibrutinib was obtained from Selleck.) 5 μL of ATP solution were added to each well, followed by addition of 15 μL of BTK solution to initiate the reaction. (Note the final volume of each well was 20 μL containing MgCl2 (10 mM), Brij-35 (0.01%), DTT (2 mM), BSA (0.05%), EGTA (1 mM), HEPE (pH7.5) (50 mM), FLPeptide (1.5 uM), ATP (1 mM) and BTK (2 nM).
The plates were incubated at room temperature for 90 minutes and then stopping buffer added (75 μL, containing 0.5 M EDTA) to terminate the reaction. Samples from each well were analyzed using EZ reader. The % remaining activity was calculated using read conversion ratio (CR) according to the equation: […]
XLFit (equation 201) was used to calculate IC50's by floating both bottom and top.

Molecules are shown by their SMILES.

Usually IC50 stands for the concentration that gives 50% inhibition.

Take `C=CC(=O)N1CCc2c(cccc2-c2c(F)cc(C(N)=O)c3[nH]c4c(c23)C[S+]([O-])CC4)C1` (single isomer, unassigned) [Compound 9-1, 9-(2-acryloyl-1,2,3,4-tetrahydroisoquinolin-5-yl)-8-fluoro-1,3,4,5-tetrahydrothiopyrano[4,3-b]indole-6-carboxamide 2-oxide]: the IC50 in the test on BTK in RAMOS B cells (Homo sapiens, Ramos) was not below 100 nM; against BTK it was less than 10 nM.

Turning to `C=CC(=O)N1CCC[C@H](c2cnc(C(N)=O)c3[nH]c4c(c23)CCCC4)C1` [Compound 2-3, (R)-4-(1-acryloylpiperidin-3-yl)-6,7,8,9-tetrahydro-5H-pyrido[3,4-b]indole-1-carboxamide], the concentration for half-maximal inhibition (IC50) in the test with BTK in RAMOS B cells (Homo sapiens, Ramos) is not below 100 nM; at BTK, not below 100 nM.

As to `C=CC(=O)N1CCc2c(cccc2-c2c(F)cc(C(N)=O)c3[nH]c4c(c23)CC2(CC4)CC2)C1` [Compound 7-12, 5-(2-acryloyl-1,2,3,4-tetrahydroisoquinolin-5-yl)-6-fluoro-1,2,4,9-tetrahydrospiro[carbazole-3,1′-cyclopropane]-8-carboxamide], the IC50 was 10 to 100 nM with BTK in RAMOS B cells and less than 10 nM on BTK.

On to `C=CC(=O)N1CCc2c(cccc2-c2c(F)cc(C(N)=O)c3[nH]c4c(c23)C[S+]([O-])CC4)C1` (single isomer, unassigned) [Compound 9-2, 9-(2-acryloyl-1,2,3,4-tetrahydroisoquinolin-5-yl)-8-fluoro-1,3,4,5-tetrahydrothiopyrano[4,3-b]indole-6-carboxamide 2-oxide], for which the IC50 in the test with BTK in RAMOS B cells is not below 100 nM; on BTK, 10 to 100 nM.

As to `C=CC(=O)N1CCc2c(cccc2-c2c(F)cc(C(N)=O)c3[nH]c4c(c23)CC2(CCCO2)CC4)C1` (centres unmarked) [Compound 7-15, 5-(2-acryloyl-1,2,3,4-tetrahydroisoquinolin-5-yl)-6-fluoro-1,2,4,4′,5′,9-hexahydro-3′H-spiro[carbazole-3,2′-furan]-8-carboxamide], the IC50 was not below 100 nM in the test on BTK in RAMOS B cells and 10 to 100 nM against BTK.

As for `CC#CC(=O)N[C@H]1CCCC(c2c(F)cc(C(N)=O)c3[nH]c4c(c23)CCC4)C1` (single isomer, unassigned) [Compound 10-6], the IC50 with BTK in RAMOS B cells was not below 100 nM; against BTK, 10 to 100 nM.

Consider `C=CC(=O)N1CCC[C@H](c2c(F)cc(C(N)=O)c3[nH]c4c(c23)CCC4)C1` [Compound 10-1, (R)-8-(1-acryloylpiperidin-3-yl)-7-fluoro-1,2,3,4-tetrahydrocyclopenta[b]-indole-5-carboxamide], for which the IC50 was less than 10 nM in the test with BTK in RAMOS B cells (Homo sapiens, Ramos) and less than 10 nM against BTK.

`C=CC(=O)N1CCc2c(cccc2-c2c(F)cc(C(N)=O)c3[nH]c4c(c23)CS(=O)(=O)CC4)C1` (single isomer, unassigned) [Compound 9-4, 9-(2-acryloyl-1,2,3,4-tetrahydroisoquinolin-5-yl)-8-fluoro-1,3,4,5-tetrahydrothiopyrano[4,3-b]indole-6-carboxamide 2,2-dioxide]: the IC50 in the test on BTK in RAMOS B cells and at BTK was not below 100 nM throughout.

Consider `C=CC(=O)N[C@H]1CCCN(c2ncc(C(N)=O)c3[nH]c4c(c23)CCCC4)C1` [Compound 3-4, (S)-1-(3-acrylamidopiperidin-1-yl)-6,7,8,9-tetrahydro-5H-pyrido[4,3-b]indole-4-carboxamide], for which the IC50 was not below 100 nM with BTK in RAMOS B cells (Homo sapiens, Ramos) and not below 100 nM at BTK.

Take `C=CC(=O)N1CCC=C(c2ncc(C(N)=O)c3[nH]c4c(c23)CCCC4)C1` [Compound 3-2, 1-(1-acryloyl-1,2,5,6-tetrahydropyridin-3-yl)-6,7,8,9-tetrahydro-5H-pyrido[4,3-b]indole-4-carboxamide]: the IC50 in the test on BTK in RAMOS B cells (Homo sapiens, Ramos) was less than 10 nM; against BTK, less than 10 nM.

Take `C=CC(=O)N1CCc2c(cccc2-c2c(F)cc(C(N)=O)c3[nH]c4c(c23)CC2(CCOCC2)CC4)C1` [Compound 7-19, 5-(2-acryloyl-1,2,3,4-tetrahydroisoquinolin-5-yl)-6-fluoro-1,2,2′,3′,4,5′,6′,9-octahydrospiro[carbazole-3,4′-pyran]-8-carboxamide]: the IC50 with BTK in RAMOS B cells (Homo sapiens, Ramos) is not below 100 nM; against BTK, 10 to 100 nM.

On to `CC#CC(=O)N[C@H]1C[C@@H](F)CN(c2c(F)cc(C(N)=O)c3[nH]c4c(c23)CCC4)C1` [Compound 10-9, 8-((3S,5R)-3-(but-2-ynamido)-5-fluoro-piperidin-1-yl)-7-fluoro-1,2,3,4-tetrahydrocyclopenta[b]indole-5-carboxamide], for which the IC50 in the test on BTK in RAMOS B cells (Homo sapiens, Ramos) was in the range of 10 to 100 nM; against BTK it was 10 to 100 nM.

Consider `C=CC(=O)Nc1cccc(-c2c(F)cc(C(N)=O)c3[nH]c4c(c23)CCCCC4)c1` [Compound 5-3, 1-(3-acrylamidophenyl)-2-fluoro-5,6,7,8,9,10-hexahydrocyclohepta[b]indole-4-carboxamide], for which the IC50 with BTK in RAMOS B cells (Homo sapiens, Ramos) lay in the range of 10 to 100 nM; against BTK it was 10 to 100 nM.

Turning to `CC#CC(=O)N[C@H]1C[C@H](F)CN(c2c(F)cc(C(N)=O)c3[nH]c4c(c23)CCC4)C1` [Compound 10-8, 8-((3S,5S)-3-(but-2-ynamido)-5-fluoropiperidin-1-yl)-7-fluoro-1,2,3,4-tetrahydrocyclopenta[b]indole-5-carboxamide], the IC50 with BTK in RAMOS B cells (Homo sapiens, Ramos) was less than 10 nM; on BTK, less than 10 nM.

As for `C=CC(=O)N1CCCC(c2cnc(C(N)=O)c3[nH]c4c(c23)CCCC4)C1` (centres unmarked) [Compound 1-1, 4-(1-acryloylpiperidin-3-yl)-6,7,8,9-tetrahydro-5H-pyrido[3,4-b]indole-1-carboxamide], the IC50 fell in the range of 10 to 100 nM in the test on BTK in RAMOS B cells (Homo sapiens, Ramos) and 10 to 100 nM at BTK.

With `C=CC(=O)N1CCCC(c2ncc(C(N)=O)c3[nH]c4c(c23)CCCC4)C1` (centres unmarked) [Compound 3-3, 1-(1-acryloylpiperidin-3-yl)-6,7,8,9-tetrahydro-5H-pyrido[4,3-b]indole-4-carboxamide], the IC50 in the test on BTK in RAMOS B cells (Homo sapiens, Ramos) is less than 10 nM; at BTK, less than 10 nM.

As to `C=CC(=O)N1CCc2c(cccc2-c2c(F)cc(C(N)=O)c3[nH]c4c(c23)CC2(CC4)CC2)C1` [Compound 7-24, 5-(2-acryloyl-1,2,3,4-tetrahydroisoquinolin-5-yl)-6-fluoro-1,2,4,9-tetrahydrospiro[carbazole-3,1′-cyclopropane]-8-carboxamide], the results for the IC50 with BTK in RAMOS B cells and at BTK were 10 to 100 nM and less than 10 nM, respectively.

Turning to `C=CC(=O)N1CCc2c(cccc2-c2c(F)cc(C(N)=O)c3[nH]c4c(c23)CS(=O)(=O)CC4)C1` (single isomer, unassigned) [Compound 9-3, 9-(2-acryloyl-1,2,3,4-tetrahydroisoquinolin-5-yl)-8-fluoro-1,3,4,5-tetrahydrothiopyrano[4,3-b]indole-6-carboxamide 2,2-dioxide], the IC50 is 10 to 100 nM in the test with BTK in RAMOS B cells and less than 10 nM against BTK.

For the compound `C=CC(=O)N1CCc2c(cccc2-c2ccc(C(N)=O)c3[nH]c4c(c23)CC2(CCC2)CC4)C1` [Compound 7-4, 5-(2-acryloyl-1,2,3,4-tetrahydroisoquinolin-5-yl)-1,2,4,9-tetrahydrospiro[carbazole-3,1′-cyclobutane]-8-carboxamide], the IC50 in the test on BTK in RAMOS B cells (Homo sapiens, Ramos) is not below 100 nM; at BTK, not below 100 nM.

`CC#CC(=O)N[C@H]1CCCC(c2c(F)cc(C(N)=O)c3[nH]c4c(c23)CCC4)C1` (single isomer, unassigned) [Compound 10-5]: the IC50 in the test with BTK in RAMOS B cells and against BTK was less than 10 nM each time.

Consider `C=CC(=O)N1CCc2c(cccc2-c2ncc(C(N)=O)c3[nH]c4c(c23)CC2(CC4)CC2)C1` [Compound 7-30, 1′-(2-acryloyl-1,2,3,4-tetrahydroisoquinolin-5-yl)-5′,6′,7′,9′-tetrahydrospiro[cyclopropane-1,8′-pyrido[4,3-b]indole]-4′-carboxamide], for which the IC50 with BTK in RAMOS B cells (Homo sapiens, Ramos) is 10 to 100 nM; against BTK it was less than 10 nM.

Take `C=CC(=O)N1CCCC(c2c(F)cc(C(N)=O)c3[nH]c4c(c23)CCCCC4)C1` (racemic) [Compound 5-5, 1-(1-acryloylpiperidin-3-yl)-2-fluoro-5,6,7,8,9,10-hexahydrocyclohepta[b]indole-4-carboxamide]: the IC50 with BTK in RAMOS B cells (Homo sapiens, Ramos) was 10 to 100 nM; against BTK, 10 to 100 nM.
